This is an account of results in patent US7960368B2, “Bismethylene-17A carbolactones and related uses” (Everstra, Inc., priority 2008, dated 2011).

pIC50: −log10 of the molar value. Several values for one entry are separate records, joined by “and”; a condition that tells them apart may be missing. Equal entries are not always repeated. Where two headings read alike, the source gives them in different places.

The target of data set [1] is T1, recombinant human glucocorticoid receptor (rhGR) (Homo sapiens, UniProt P04150).
T1 sequence (P04150 1-777): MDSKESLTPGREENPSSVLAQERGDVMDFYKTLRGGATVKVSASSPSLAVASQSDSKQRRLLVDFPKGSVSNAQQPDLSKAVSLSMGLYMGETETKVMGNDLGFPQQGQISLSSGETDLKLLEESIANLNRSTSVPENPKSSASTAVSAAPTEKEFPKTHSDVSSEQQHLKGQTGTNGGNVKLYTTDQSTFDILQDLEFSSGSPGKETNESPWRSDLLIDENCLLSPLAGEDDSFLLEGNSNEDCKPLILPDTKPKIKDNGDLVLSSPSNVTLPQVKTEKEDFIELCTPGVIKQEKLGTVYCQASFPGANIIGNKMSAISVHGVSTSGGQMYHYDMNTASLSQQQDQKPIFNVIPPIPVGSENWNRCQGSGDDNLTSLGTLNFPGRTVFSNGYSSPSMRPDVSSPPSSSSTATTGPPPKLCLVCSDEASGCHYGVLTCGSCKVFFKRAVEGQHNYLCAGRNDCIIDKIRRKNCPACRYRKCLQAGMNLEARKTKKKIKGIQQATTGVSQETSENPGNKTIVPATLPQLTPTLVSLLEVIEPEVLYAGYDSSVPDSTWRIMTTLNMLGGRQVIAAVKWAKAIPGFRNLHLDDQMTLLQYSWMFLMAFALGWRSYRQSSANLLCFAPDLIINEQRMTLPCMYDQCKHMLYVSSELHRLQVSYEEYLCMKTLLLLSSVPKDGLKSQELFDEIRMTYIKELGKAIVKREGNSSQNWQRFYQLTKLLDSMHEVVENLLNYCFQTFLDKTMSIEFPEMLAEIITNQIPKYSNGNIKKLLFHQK
Kind of data set: Glucocorticoid receptor binding assay. The settings on record: hGR IC50, competition with 10 nM [3H]dexamethasone; superscript marks the assay run.
Protocol: DCC is added to the wells after incubation to separate bound and unbound radioligand using a repeater pipettor to reduce variability.
Recombinant human GR: 8.6 pmol/mg, 80 pmol/ml. • 2. KEM buffer (10 mM KPO4, pH 7.4, 0.1 mM EDTA, 20 mM Na2MoO4) • 3. KEMD buffer (KEM buffer+5 mM DTT, add DTT the day of assay) • 4. […] 5% Dextran-coated charcoal solution in DEM buffer B. Assay Method—Set Up on Ice. • 1. Dilute 4×10^−3 M CDB-3972 to 4×10^−5 M (40 μM) in KEMD for NSB. The final concentration will be 10 μM. • 2. Thaw the rhGR on ice. […] Dilute rhGR 1:5 (80 pmol/ml) to 16.0 pmol/ml in KEMD. At 25 μl/tube, the final concentration will be 400 fmol/tube in KEMD. • 3. Prepare KEMD containing 10% ethanol. Dilute the compounds to be assayed in KEMD containing 10% ethanol to the working concentrations specified in Table 3. • 4. Prepare a 40 nM solution [^3H]Dex in KEMD containing 10% ethanol. The final concentration will be 10 nM. • 5. Set up the assay in microplates. Use 3 wells for total counts (no receptor), 3 NSB, 6 total binding, and triplicate wells for each concentration of dex or CDB compound. […] Mix gently, and incubate overnight at 2-6° C.
The next morning, prechill the Jouan centrifuge with microplate rotor. Add 50 μl of 5% DCC in KEM to all but total counts using a repeater pipettor. Make sure the DCC is constantly mixed and thoroughly resuspended before adding to the wells. • 7. Mix gently in the cold room for 5 min on plate shaker. • 8. Centrifuge at 3,000 rpm in the Jouan centrifuge at 4° C. for 15 min. • 9. Keeping the plates on ice, pipet 100 μl of the supernatants into 24-well plates, add 1 ml of Microscint PS, and seal the plates. Pre-incubate the plates for 10 min in the counter, and count each well for 2 min in the TopCount.

Data set [2] has as its target T2, recombinant rat androgen receptor ligand binding domain (ARLBD) (Rattus norvegicus, UniProt P15207).
T2 sequence (P15207 651-882 limits assumed): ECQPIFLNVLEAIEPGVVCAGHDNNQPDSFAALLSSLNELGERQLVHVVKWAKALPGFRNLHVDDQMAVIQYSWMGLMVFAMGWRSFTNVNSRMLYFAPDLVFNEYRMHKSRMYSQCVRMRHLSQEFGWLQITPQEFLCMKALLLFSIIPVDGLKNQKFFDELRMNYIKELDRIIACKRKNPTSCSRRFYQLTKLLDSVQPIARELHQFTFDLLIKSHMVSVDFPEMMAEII
Nature of the data set: Androgen receptor binding assay. As to conditions: for pIC50: superscript marks the assay run. As to the method: The relative affinity of test substances for the androgen receptor was taken as a measure of androgen antagonist activity and of the potential for anti-androgen side effects. […] Different concentrations (e.g., 10 nM, 15 nM or 30 nM) of purified recombinant ARLBD are immobilized to an OptiPlate 96-well microtiter plate (Packard) via incubation at 4° C. in 100 μl/well PBS containing ARLBD. […] “No compound” controls contain DMSO/binding buffer without compound. The plates are incubated overnight at 4° C., after which solutions in the plates are aspirated and washed six times with PBS, followed by the addition of MicroScint-20 scintillation cocktail (Packard). The plates are sealed using transparent sealing tape and counted for radioactivity by use of the scintillation counter. The data thus obtained is used to determine the IC50 values and the relative binding affinity (“RBA”) of the androgen receptor for the test compound.

For data set [3], the target named is T3, recombinant human progesterone receptor B (hPR-B) (Homo sapiens, UniProt P06401).
T3 sequence (P06401 1-933): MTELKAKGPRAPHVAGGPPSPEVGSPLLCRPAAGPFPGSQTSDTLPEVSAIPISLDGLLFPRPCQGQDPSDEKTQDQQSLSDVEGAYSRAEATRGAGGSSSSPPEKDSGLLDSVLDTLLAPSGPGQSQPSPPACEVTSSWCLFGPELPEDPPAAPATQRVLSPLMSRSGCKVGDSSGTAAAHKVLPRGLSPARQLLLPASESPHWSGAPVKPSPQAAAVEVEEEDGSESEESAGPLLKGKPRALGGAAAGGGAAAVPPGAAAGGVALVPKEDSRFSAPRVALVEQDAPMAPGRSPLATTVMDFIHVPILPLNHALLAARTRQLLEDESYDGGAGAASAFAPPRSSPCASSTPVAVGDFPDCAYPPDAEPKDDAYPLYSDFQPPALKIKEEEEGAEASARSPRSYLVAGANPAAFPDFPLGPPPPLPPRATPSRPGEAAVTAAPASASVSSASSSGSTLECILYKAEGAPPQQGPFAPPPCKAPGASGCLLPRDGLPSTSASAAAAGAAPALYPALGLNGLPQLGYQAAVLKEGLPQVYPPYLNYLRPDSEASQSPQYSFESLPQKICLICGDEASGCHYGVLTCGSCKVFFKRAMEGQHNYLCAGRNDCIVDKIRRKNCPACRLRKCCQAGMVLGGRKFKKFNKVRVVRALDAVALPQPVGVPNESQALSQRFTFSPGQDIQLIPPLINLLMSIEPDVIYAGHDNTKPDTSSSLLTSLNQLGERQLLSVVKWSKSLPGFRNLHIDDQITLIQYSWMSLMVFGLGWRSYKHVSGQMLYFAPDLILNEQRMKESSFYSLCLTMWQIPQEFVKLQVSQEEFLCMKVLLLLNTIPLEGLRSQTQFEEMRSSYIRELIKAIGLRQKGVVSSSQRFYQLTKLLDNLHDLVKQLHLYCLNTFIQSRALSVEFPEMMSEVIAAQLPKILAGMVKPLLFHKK
Nature of the data set: Progestin receptor binding assay, hPR-B. As to conditions: for pIC50: competition with [3H]-progesterone; for hPR-B RBA: relative binding affinity, progesterone = 100. How it is done: (§1) “No compound” controls contain DMSO/binding buffer without compound. The plates are incubated overnight at 4° C., after which solutions in the plates are aspirated and washed six times with PBS, followed by the addition of MicroScint-20 scintillation cocktail (Packard). The plates are sealed using transparent sealing tape and counted for radioactivity by use of the scintillation counter.

Data set [4] concerns the target T4, recombinant human progesterone receptor A (hPR-A) (Homo sapiens, UniProt P06401).
T4 sequence (P06401 1-769 isoform P06401-2): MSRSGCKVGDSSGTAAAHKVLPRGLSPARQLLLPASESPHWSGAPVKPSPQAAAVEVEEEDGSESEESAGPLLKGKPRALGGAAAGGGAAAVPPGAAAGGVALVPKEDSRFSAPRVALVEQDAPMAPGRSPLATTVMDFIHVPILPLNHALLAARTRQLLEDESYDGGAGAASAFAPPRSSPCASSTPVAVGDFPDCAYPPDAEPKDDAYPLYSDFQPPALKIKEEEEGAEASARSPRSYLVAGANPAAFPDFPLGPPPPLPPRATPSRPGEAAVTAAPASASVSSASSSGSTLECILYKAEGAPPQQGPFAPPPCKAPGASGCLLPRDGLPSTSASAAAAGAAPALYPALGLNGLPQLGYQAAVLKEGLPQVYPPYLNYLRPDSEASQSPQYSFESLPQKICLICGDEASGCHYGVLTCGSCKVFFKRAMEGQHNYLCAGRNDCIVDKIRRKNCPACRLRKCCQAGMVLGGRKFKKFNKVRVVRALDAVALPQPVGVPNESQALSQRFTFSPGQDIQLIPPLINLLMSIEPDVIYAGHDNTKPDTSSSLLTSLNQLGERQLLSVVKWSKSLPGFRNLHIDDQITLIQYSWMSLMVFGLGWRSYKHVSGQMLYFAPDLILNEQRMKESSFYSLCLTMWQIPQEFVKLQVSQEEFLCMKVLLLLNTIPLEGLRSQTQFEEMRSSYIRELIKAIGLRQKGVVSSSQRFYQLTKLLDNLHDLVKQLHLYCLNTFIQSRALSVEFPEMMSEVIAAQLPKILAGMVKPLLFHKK
Kind of data set: Progestin receptor binding assay, hPR-A. The settings on record: for pIC50: competition with [3H]-progesterone; for hPR-A RBA: relative binding affinity, progesterone = 100. How it is done: as §1

For data set [5] the following is noted: various pH values; cited from earlier work.
The conditions of data set [6]: acidic conditions such as the gastric environment; cited from earlier work.
The conditions of data set [7]: single entity tablet; cited from earlier work.
The mark [8] stands for this setting: competition with 5 nM [3H]-R1881, read-out: ARLBD IC50.
Setting [9] is: ARLBD IC50, competition with 5 nM [3H]-R1881.

For `C[C@]12CC3(CC3)C(=O)C=C1[C@@H]1CC1C1C2CC[C@@]2(C)C1[C@@H]1CC1[C@@]21CCC(=O)O1` (stereo partly drawn) [Compound (IIIe), 2,2-Ethylene-6β,7β:15β,16β-dimethylene-3-oxo-17α-pregn-4-ene-21,17-carbolactone], the negative logarithm of the IC50 (pIC50) in data set [1], in data set [2] (setting [8]), in data set [3] and in data set [4] was below 6.00 throughout. For the same compound, the “ARLBD RBA” value in data set [2] was <0.6% and <0.5%. Further, the “hPR-B RBA” value in data set [3] is recorded as below 0.6%. In addition, the “hPR-A RBA” value in data set [4] is recorded as below 0.6%.

In the case of `C[C@]12CCC(=O)C=C1C1(CC1)CC1C2CC[C@@]2(C)C1[C@@H]1CC1[C@@]21CCC(=O)O1` (stereo partly shown) [Compound (IVa)], the pIC50 is 7.35 and 7.19 in data set [1]; 7.55 and 7.75 in data set [2] (setting [9]); 8.29 in data set [3]; 8.46 in data set [4]. Further, the “ARLBD RBA” value in data set [2] is 20% and 25%. In addition, the “hPR-B RBA” value in data set [3] is recorded as 116%. Also, in data set [4], the “hPR-A RBA” value was found to be 149%.

Consider `C[C@]12C=CC(=O)C=C1C1(CC1)CC1C2CC[C@@]2(C)C1[C@@H]1CC1[C@@]21CCC(=O)O1` (stereo partly drawn) [Compound (IVb), 6,6-ethylene-15β,16β-methylene-3-oxo-17α-pregna-1,4-diene 21,17-carbolactone], for which the pIC50 is 7.06 and 6.92 in data set [1]; 6.99 and 6.97 in data set [2] (setting [8]); 7.81 in data set [3]; 7.86 in data set [4]. Moreover, in data set [2], the “ARLBD RBA” value was 5% and 4%. Moreover, the “hPR-B RBA” value in data set [3] is 38%. Also, the “hPR-A RBA” value in data set [4] amounted to 38%.

Regarding `C[C@@]12C(=CC(=O)C3C[C@@H]31)C1(CC1)CC1C2CC[C@@]2(C)C1[C@@H]1CC1[C@@]21CCC(=O)O1` (stereo partly drawn) [Compound (IVc), 1α,2α:15β,16β-Dimethylene-6,6-ethylene-3-oxo-17α-pregn-4-ene-21,17-carbolactone], the pIC50 in data set [1] was 6.93 and 6.52; in data set [2] (setting [9]), 7.08 and 7.09; in data set [3], 8.08; in data set [4] it was 8.17. Moreover, the “ARLBD RBA” value in data set [2] was 7% and 5%. Besides, the “hPR-B RBA” value in data set [3] was determined as 71%. The “hPR-A RBA” value in data set [4] turned out to be 78%.

Consider `C[C@]1(O)CC[C@H]2[C@@H]3CCC4=CC(=O)CCC4=C3C=C[C@@]21C` [Compound R1881, methyltrienolone, reference compound], for which the “ARLBD RBA” value in data set [2] (relative binding affinity, R1881 = 100, same assay run) was 100%.

With `C[C@]12CCC(=O)C=C1[C@@H]1C[C@@H]1[C@H]1[C@@H]3[C@@H]4C[C@@H]4[C@@]4(CCC(=O)O4)[C@@]3(C)CC[C@@H]12` [Drospirenone, 6β,7β,15β,16β-dimethylene-3-oxo-17α-pregn-4-ene-21,17-carbolactone], the solubility in water entry in data set [5] is given as “sparingly soluble”. In addition, the “isomerization under acidic conditions” value in data set [6] is “undergo isomerization to a form that is inactive”. In addition, the absolute bioavailability result in data set [7] is given as “about 76%”. For the same compound, in data set [3], the “hPR-B RBA” value is listed as 29%. Moreover, in data set [4], the “hPR-A RBA” value came out at 23%.
